The values below are quoted from earlier work in patent US20210085696A1, “FORMULATIONS COMPRISING CHELATORS, PERMEATION ENHANCERS AND HYDROXYETHYL CELLULOSE FOR TREATING OPHTHALMIC DISORDERS” (LIVIONEX, Inc., priority 2018, published 2021).

For this data set the following is noted: @ 79° F.

Consider `CS(C)(=O)=O` [MSM, methylsulfonylmethane], for which the water solubility is 34 % w/v.
